The record followed here is article PMC5659129, “Determinants of the Inhibition of DprE1 and CYP2C9 by Antitubercular Thiophenes” (Angewandte Chemie (International Ed. in English), 2017).

In brackets after ≈: the same amount, converted by molar mass.

In the test the test system is Mtb Y314C mutant strain. It is filed as cell-based, Mycobacterium tuberculosis.
Regarding `CCOC(=O)NC(=O)c1ccsc1NC(=O)c1nc2ccccc2s1` [TCA1], the “MIC Y314C” value came to 5.4 ± 0.32 µM (≈ 2.03 µg/mL).

Regarding `CCOC(=O)NC(=O)c1ccsc1NC(=O)c1nc2cnccc2s1` [TCA007], the “MIC Y314C” value is 2.4 ± 0.34 µM (≈ 0.903 µg/mL).

With `O=C(Nc1sccc1C(=O)Nc1ncccn1)c1nc2cnccc2s1` [TCA020], the “MIC Y314C” value was found to be 17 ± 1.1 µM (≈ 6.5 µg/mL).

`CCOC(=O)NC(=O)c1cc(F)sc1NC(=O)c1nc2ccccc2s1` [TCA481]: the “MIC Y314C” value stood at 1.4 ± 0.086 µM (≈ 0.551 µg/mL).

Take `Cc1ccnc(NC(=O)c2ccsc2NC(=O)c2nc3cnccc3s2)n1` [TCA787]: the “MIC Y314C” value worked out at 14 ± 1.4 µM (≈ 5.55 µg/mL).
